According to US11291672B2, “Betamethasone oral spray formulation and method of use to treat ataxia” (GRACE THERAPEUTICS LLC, priority 2016, dated 2022):
Values belong to the compound of their own block, whether it stands above or below them.

Columns and labels:
[1] = cited from earlier work
[2] = Solubility in purified water; details: vortex 5 minutes
Excerpt: Respective salt and base forms of betamethasone and dexamethasone were weighed and transferred in the glass test tube.

[3] = tested on: neurological symptoms in ataxia telangiectasia; details: 0.1 mg/kg/day, cited from earlier work
[4] = tested on: ataxia symptoms in children with AT; details: cited from earlier work
[5] = comparison among glucocorticoids; cited from earlier work

- Solubility in purified water ([2]; Concentration 0.25 mg/0.14 ml): Soluble
- Solubility in purified water ([2]; Concentration 0.50 mg/0.14 ml): Soluble
- Solubility in purified water ([2]; Concentration 1.00 mg/0.14 ml): Soluble
- Solubility in purified water ([2]; Concentration 1.50 mg/0.14 ml): Soluble
- Solubility in purified water ([2]; Concentration 2.00 mg/0.14 ml): Soluble
- Solubility in purified water ([2]; Concentration 4.00 mg/0.14 ml): Soluble
- Solubility in purified water ([2]; Concentration 8.00 mg/0.14 ml): Soluble
SMILES: C[C@H]1CC2C3CCC4=CC(=O)C=C[C@]4(C)[C@@]3(F)[C@@H](O)C[C@]2(C)[C@@]1(O)C(=O)COP(=O)(O)O (stereo partly drawn) [Betamethasone disodium phosphate, 9-Fluoro-11β,17,21-trihydroxy-16β-methylpregna-1,4-diene-3,20-dione 21-(disodium phosphate)]
- solubility (in words) [1]: soluble
- stability in aqueous solution ([1]; strongly influenced by storage temperature): very low

SMILES: C[C@@H]1C[C@H]2[C@@H]3CCC4=CC(=O)C=C[C@]4(C)[C@@]3(F)[C@@H](O)C[C@]2(C)[C@@]1(O)C(=O)COP(=O)([O-])[O-].[Na+].[Na+] [Dexamethasone disodium phosphate]
- Solubility in purified water ([2]; Concentration 1.00 mg/0.14 ml): Soluble
- Solubility in purified water ([2]; Concentration 2.00 mg/0.14 ml): Soluble
- Solubility in purified water ([2]; Concentration 4.00 mg/0.14 ml): Soluble
- Solubility in purified water ([2]; Concentration 8.00 mg/0.14 ml): Soluble

SMILES: C[C@H]1C[C@H]2[C@@H]3CCC4=CC(=O)C=C[C@]4(C)[C@@]3(F)[C@@H](O)C[C@]2(C)[C@@]1(O)C(=O)CO [betamethasone]
- change in phenotypic appearance (adverse effect) ([3]; 4 weeks): moon face
- body weight at 4 weeks ([3]; from 15.5 kg): 19.0 kg
- Solubility in purified water ([2]; Concentration 0.25 mg/0.14 ml): Not Soluble
- patients with moon face ([4]; 13 children): 8 patients
- patients with small increases in body weight ([4]; 13 children): 12 patients
- adverse events in the trial ([4]; in vivo): minimal

- Solubility in purified water ([2]; Concentration 0.25 mg/0.14 ml): Not Soluble
SMILES: C[C@@H]1C[C@H]2[C@@H]3CCC4=CC(=O)C=C[C@]4(C)[C@@]3(F)[C@@H](O)C[C@]2(C)[C@@]1(O)C(=O)CO [dexamethasone]

SMILES: C[C@]12CCC(=O)C=C1CC[C@@H]1[C@@H]2[C@@H](O)C[C@@]2(C)[C@H]1CC[C@]2(O)C(=O)CO [hydrocortisone]
- equivalent mg dosage [5]: 20 mg

SMILES: C[C@]12C=CC(=O)C=C1CC[C@@H]1[C@@H]2[C@@H](O)C[C@@]2(C)[C@H]1CC[C@]2(O)C(=O)CO [prednisolone]
- equivalent mg dosage [5]: 5 mg

SMILES: C[C@]12C=CC(=O)C=C1CC[C@H]1[C@@H]3C[C@@H](O)[C@](O)(C(=O)CO)[C@@]3(C)C[C@H](O)[C@@]12F [triamcinolone]
- equivalent mg dosage [5]: 4 mg
